pIC50: −log10 of the molar value.

Test [1] addresses T1, FLT3 (Homo sapiens, UniProt P36888).
T1 sequence (P36888 27-993): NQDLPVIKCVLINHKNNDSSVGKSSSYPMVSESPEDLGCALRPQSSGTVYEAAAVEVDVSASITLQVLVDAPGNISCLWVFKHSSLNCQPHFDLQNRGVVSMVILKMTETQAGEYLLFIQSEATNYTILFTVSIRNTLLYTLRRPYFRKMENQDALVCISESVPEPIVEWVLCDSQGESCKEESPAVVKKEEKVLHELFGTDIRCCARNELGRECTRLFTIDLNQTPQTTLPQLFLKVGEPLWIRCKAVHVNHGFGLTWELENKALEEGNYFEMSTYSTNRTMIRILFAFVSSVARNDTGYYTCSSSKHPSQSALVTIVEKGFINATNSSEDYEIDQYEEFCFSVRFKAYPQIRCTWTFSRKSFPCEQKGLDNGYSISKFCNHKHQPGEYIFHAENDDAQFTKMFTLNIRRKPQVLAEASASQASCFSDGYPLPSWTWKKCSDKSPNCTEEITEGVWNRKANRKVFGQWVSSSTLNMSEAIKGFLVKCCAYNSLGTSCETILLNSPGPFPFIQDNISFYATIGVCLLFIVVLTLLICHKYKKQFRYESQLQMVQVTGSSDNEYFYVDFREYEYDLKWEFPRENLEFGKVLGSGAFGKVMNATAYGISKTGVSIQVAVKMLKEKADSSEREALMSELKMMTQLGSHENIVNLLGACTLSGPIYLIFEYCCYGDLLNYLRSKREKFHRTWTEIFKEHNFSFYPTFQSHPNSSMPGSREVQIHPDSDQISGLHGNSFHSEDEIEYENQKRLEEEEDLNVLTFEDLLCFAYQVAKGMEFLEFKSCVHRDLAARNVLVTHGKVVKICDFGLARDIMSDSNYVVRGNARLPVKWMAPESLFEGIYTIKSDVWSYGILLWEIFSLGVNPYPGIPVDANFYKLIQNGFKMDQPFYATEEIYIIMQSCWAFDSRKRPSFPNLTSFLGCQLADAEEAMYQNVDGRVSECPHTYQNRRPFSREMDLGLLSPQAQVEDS
As to the kind of experiment: RBC HotSpot Kinase Assay, FLT3. The format is biochemical. On the set-up: purchased Reaction Biology (RBC), HotSpot kinase assay. To be noted: isolated kinase, 33P-ATP. In a few lines: (§1)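 Kinase domain constructs, possibly truncated, were assayed radiometrically with 33P-ATP and substrate after 20 min compound preincubation, reacting 2 h at room temp.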

Test [2] concerns the target T2, IRAK1 (Homo sapiens, UniProt P51617).
T2 construct: purchased Reaction Biology (RBC), HotSpot kinase assay
As to the kind of experiment: RBC HotSpot Kinase Assay, IRAK1. The format is biochemical. To be noted: isolated kinase, 33P-ATP. In a few lines: as §1

Test [3] deals with NF-κB. The test can be described thus: NF-kB SEAP reporter assay in THP-1-Blue NF-κB cells, Pam3CSK4 stimulation. The test is classed as cell-based. The conditions noted are these: Pam3CSK4 1 ng/mL, read-out: NF-κB Pam3SCK4 IC50. The procedure:
(§2) THP-1-Blue NF-xB cells (InvivoGen) carrying a stable integrated NF-κB-inducible secreted embryonic alkaline phosphatase (SEAP) reporter construct were plated at a concentration of 1×10^5 cells per well. The cells were stimulated with Pam3CSK4 (1 ng/mL) or hIL1B (1 ng/mL). After 10-20 minutes, the cells were then treated with vehicle (DMSO) or serial dilutions of the test compounds (10 doses tested for each test compound, with a 1:10 dilution series starting at 1 μM or 3 μM) with a final volume of 200 μL for 24 hours at 37° C. After 24 hours, the cells were centrifuged and 20 μL supernatant was incubated with 180 μL QUANTI-Blue reagent at 37° C. for 30-60 minutes. The levels of NF-κB-induced was measured in a microplate reader at 620 nm.

Test [4] concerns the target T3, IRAK4 (Homo sapiens, UniProt Q9NWZ3).
T3 sequence (Q9NWZ3 1-460): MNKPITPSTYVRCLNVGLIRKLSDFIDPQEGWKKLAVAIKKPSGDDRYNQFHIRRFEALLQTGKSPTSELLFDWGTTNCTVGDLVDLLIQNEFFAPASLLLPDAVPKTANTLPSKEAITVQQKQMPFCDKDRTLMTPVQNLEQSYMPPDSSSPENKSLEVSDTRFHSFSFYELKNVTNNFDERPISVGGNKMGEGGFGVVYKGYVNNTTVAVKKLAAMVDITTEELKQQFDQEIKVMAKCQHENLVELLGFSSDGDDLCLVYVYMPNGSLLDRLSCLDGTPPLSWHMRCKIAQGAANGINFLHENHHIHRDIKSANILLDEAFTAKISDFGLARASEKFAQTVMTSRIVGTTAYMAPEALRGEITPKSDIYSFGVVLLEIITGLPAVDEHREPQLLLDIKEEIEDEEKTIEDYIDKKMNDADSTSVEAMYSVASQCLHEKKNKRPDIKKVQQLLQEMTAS
As to the kind of experiment: RBC HotSpot Kinase Assay, IRAK4. The test is classed as biochemical. On the set-up: purchased Reaction Biology (RBC), HotSpot kinase assay. To be noted: isolated kinase, 33P-ATP. In a few lines: as §1

Test [5] concerns NF-κB. As to the kind of experiment: NF-kB SEAP reporter assay in THP-1-Blue NF-κB cells, hIL1B stimulation. The test is classed as cell-based. To be noted: hIL1B 1 ng/mL, read-out: NF-κB IL1B IC50. The procedure: as §2
Test [6] deals with MOLM14 F691L cells. As to the kind of experiment: MOLM14 F691L cell viability assay (Cell Titer Glo). The test is classed as cell-based. The conditions noted are these: Homo sapiens, MOLM-14, 48 h. In a few lines:
(§3)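 MOLM14 cells carrying FLT3 D835Y or F691L were seeded at 1000 cells/well in RPMI-1640 with 20% FBS and dosed at 22 concentrations, 1:2 dilutions from 10 μM. Viability after 48 h by Cell Titer Glo luminescence; 2.3 μM bortezomib as cytotoxic control.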

Test [7] deals with MOLM14 D835Y cells. As to the kind of experiment: MOLM14 D835Y cell viability assay (Cell Titer Glo). The format is cell-based. The conditions noted are these: Homo sapiens, MOLM-14, 48 h. In a few lines: as §3

T2 sequence (P51617 whole entry): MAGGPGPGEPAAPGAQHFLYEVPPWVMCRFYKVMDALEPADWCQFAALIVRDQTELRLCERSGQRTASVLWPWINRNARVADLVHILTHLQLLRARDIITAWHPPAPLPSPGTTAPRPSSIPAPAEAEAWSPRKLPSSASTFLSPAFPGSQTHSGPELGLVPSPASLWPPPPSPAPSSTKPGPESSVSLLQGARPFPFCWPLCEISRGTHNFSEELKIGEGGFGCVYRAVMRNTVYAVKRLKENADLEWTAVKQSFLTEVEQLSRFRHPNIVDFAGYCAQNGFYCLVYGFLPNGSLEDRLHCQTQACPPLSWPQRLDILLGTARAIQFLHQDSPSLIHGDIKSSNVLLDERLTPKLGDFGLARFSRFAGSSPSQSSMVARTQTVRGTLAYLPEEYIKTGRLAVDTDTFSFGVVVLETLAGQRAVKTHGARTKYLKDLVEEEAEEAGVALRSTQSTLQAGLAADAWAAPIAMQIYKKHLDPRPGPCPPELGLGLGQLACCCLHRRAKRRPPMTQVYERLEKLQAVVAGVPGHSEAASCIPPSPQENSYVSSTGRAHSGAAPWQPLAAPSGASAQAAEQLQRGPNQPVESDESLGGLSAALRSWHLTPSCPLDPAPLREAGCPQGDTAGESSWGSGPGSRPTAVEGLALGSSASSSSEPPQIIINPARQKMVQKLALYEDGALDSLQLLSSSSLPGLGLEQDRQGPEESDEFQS

As to `F[C@H]1CNC[C@@H]1Nc1cccc(-c2cnc3cnc(OCC(F)(F)F)cn23)n1` [Compound 36, N-((3S,4S)-4-fluoropyrrolidin-3-yl)-6-(6-(2,2,2-trifluoroethoxy)imidazo[1,2-a]pyrazin-3-yl)pyridin-2-amine], the pIC50 was greater than 9.30 in test [1]; 6.72 in test [2]; 7.77 in test [3] (24 h); 9.00 in test [4]; 7.40 in test [5] (24 h).
With `CC(C)Oc1cn2c(-c3cccc(N[C@H]4CNC[C@@H]4F)n3)cnc2cn1` [Compound 59, N-((3S,4S)-4-fluoropyrrolidin-3-yl)-6-(6-isopropoxyimidazo[1,2-a]pyrazin-3-yl)pyridin-2-amine], the pIC50 in test [1] is greater than 9.30; in test [2], 6.16; in test [3] (24 h), 7.62; in test [4] it was greater than 9.30; in test [5] (24 h), 6.84.
On to `O=S1(=O)CCCN1c1cn2c(-c3cccc(N[C@@H]4CCCNC4)n3)cnc2cn1` [Compound 96, (R)-2-(3-(6-(piperidin-3-ylamino)pyridin-2-yl)imidazo[1,2-a]pyrazin-6-yl)isothiazolidine 1,1-dioxide], for which the pIC50 in test [1] was 9.05; in test [6] it was 7.41; in test [2] it was 7.31; in test [7], 8.15; in test [3] (24 hours), 7.70; in test [4], 8.70. Further, the pIC50 in test [5] (24 hours) is 6.58.
Regarding `CC(C)Oc1cn2c(-c3cccc(N[C@@H]4CCCNC4)n3)cnc2cn1` [Compound 131, (R)-6-(6-isopropoxyimidazo[1,2-a]pyrazin-3-yl)-N-(piperidin-3-yl)pyridin-2-amine], the pIC50 in test [1] was greater than 9.30; in test [6], 6.77; in test [2] it was 6.36; in test [7] it was 7.57; in test [4], 8.00.
Turning to `F[C@H]1CNC[C@@H]1Nc1cccc(-c2cnc3cnc(OCC4CC4)cn23)n1` [compound 60, 6-(6-(cyclopropylmethoxy)imidazo[1,2-a]pyrazin-3-yl)-N-((3S,4S)-4-fluoropyrrolidin-3-yl)pyridin-2-amine], the pIC50 in test [1] was greater than 9.30; in test [2], 6.08; in test [3] (24 h) it was 7.47; in test [4], 8.70; in test [5] (24 h), 6.45.
`FC(F)COc1cn2c(-c3cccc(N[C@H]4CNCC[C@@H]4F)n3)cnc2cn1` [compound 76, 6-(6-(2,2-difluoroethoxy)imidazo[1,2-a]pyrazin-3-yl)-N-((3S,4S)-4-fluoropiperidin-3-yl)pyridin-2-amine]: the pIC50 was greater than 9.30 in test [1]; 6.70 in test [6]; 6.80 in test [2]; 7.72 in test [7]; 9.00 in test [4].
For `CC(C)Oc1cn2c(-c3cccc(N[C@H]4CNCC[C@@H]4F)n3)cnc2cn1` [compound 132, N-((3S,4S)-4-fluoropiperidin-3-yl)-6-(6-isopropoxyimidazo[1,2-a]pyrazin-3-yl)pyridin-2-amine], the pIC50 in test [1] is greater than 9.30; in test [6], 6.92; in test [2], 6.84; in test [7], 7.72; in test [4] it was 8.70.

For the origin of these results see patent US12612410B2 (CHILDREN'S HOSPITAL MEDICAL CENTER, priority 2020, dated 2026).
